Source: paper PMC4893628, “Chalcone-based Selective Inhibitors of a C4 Plant Key Enzyme as Novel Potential Herbicides” (Scientific Reports, 2016)
Read-outs that look alike come from different tables or passages of the source.

Assays:
Assay type in all cases: cell-based
Bacillus subtilis 168 = assay: Bacterial growth in microscale cultivation, B. subtilis; conditions: relative to control
In short: (§1)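 Inhibitors in DMSO were added to the medium, at a maximum of 400 μM for trans-chalcone and 100 μM for 2'-hydroxychalcone. Cultures were seeded at OD600 0.5, or 0.25 for B. subtilis, and growth was followed as 620 nm backscatter in a BioLector at 1200 rpm. Final backscatter, growth rate and lag phase were compared with DMSO controls.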

[1] = system: Escherichia coli K-12 MG1655; assay: Bacterial growth in microscale cultivation, E. coli; conditions: relative to control; for activity at 4 µM / activity at 40 µM / activity at 400 µM: Escherichia coli
In short: as §1

[2] = system: Pseudomonas putida KT2440; assay: Bacterial growth in microscale cultivation, P. putida; conditions: relative to control; for activity at 4 µM / activity at 40 µM / activity at 400 µM: Pseudomonas putida
In short: as §1

[3] = system: Corynebacterium glutamicum ATCC13032; assay: Bacterial growth in microscale cultivation, C. glutamicum; conditions: relative to control; for activity at 4 µM / activity at 40 µM / activity at 400 µM: Corynebacterium glutamicum
In short: as §1

[4] = Bacillus subtilis, 168, complex medium, 4 µM, read-out: Final Backscatter
[5] = Bacillus subtilis, 168, complex medium, 4 µM, read-out: Growth rate
[6] = Bacillus subtilis, 168, complex medium, 40 µM, read-out: Final Backscatter
[7] = Bacillus subtilis, 168, complex medium, 40 µM, read-out: Growth rate
[8] = Bacillus subtilis, 168, complex medium, 400 µM, read-out: Final Backscatter
[9] = Bacillus subtilis, 168, complex medium, 400 µM, read-out: Growth rate
[10] = Bacillus subtilis, 168, minimal medium, 4 µM, read-out: Final Backscatter
[11] = Bacillus subtilis, 168, minimal medium, 4 µM, read-out: Growth rate
[12] = Bacillus subtilis, 168, minimal medium, 40 µM, read-out: Final Backscatter
[13] = Bacillus subtilis, 168, minimal medium, 40 µM, read-out: Growth rate
[14] = Bacillus subtilis, 168, minimal medium, 400 µM, read-out: Final Backscatter
[15] = Bacillus subtilis, 168, minimal medium, 400 µM, read-out: Growth rate
[16] = MG1655, complex medium, 4 µM, read-out: Final Backscatter
[17] = MG1655, complex medium, 4 µM, read-out: Growth rate
[18] = MG1655, complex medium, 40 µM, read-out: Final Backscatter
[19] = MG1655, complex medium, 40 µM, read-out: Growth rate
[20] = MG1655, complex medium, 400 µM, read-out: Final Backscatter
[21] = MG1655, complex medium, 400 µM, read-out: Growth rate
[22] = MG1655, minimal medium, 4 µM, read-out: Final Backscatter
[23] = MG1655, minimal medium, 4 µM, read-out: Growth rate
[24] = MG1655, minimal medium, 40 µM, read-out: Final Backscatter
[25] = MG1655, minimal medium, 40 µM, read-out: Growth rate
[26] = MG1655, minimal medium, 400 µM, read-out: Final Backscatter
[27] = MG1655, minimal medium, 400 µM, read-out: Growth rate
[28] = KT2440, complex medium, 4 µM, read-out: Final Backscatter
[29] = KT2440, complex medium, 4 µM, read-out: Growth rate
[30] = KT2440, complex medium, 40 µM, read-out: Final Backscatter
[31] = KT2440, complex medium, 40 µM, read-out: Growth rate
[32] = KT2440, complex medium, 400 µM, read-out: Final Backscatter
[33] = KT2440, complex medium, 400 µM, read-out: Growth rate
[34] = KT2440, minimal medium, 4 µM, read-out: Final Backscatter
[35] = KT2440, minimal medium, 4 µM, read-out: Growth rate
[36] = KT2440, minimal medium, 40 µM, read-out: Final Backscatter
[37] = KT2440, minimal medium, 40 µM, read-out: Growth rate
[38] = KT2440, minimal medium, 400 µM, read-out: Final Backscatter
[39] = KT2440, minimal medium, 400 µM, read-out: Growth rate
[40] = ATCC13032, complex medium, 4 µM, read-out: Final Backscatter
[41] = ATCC13032, complex medium, 4 µM, read-out: Growth rate
[42] = ATCC13032, complex medium, 40 µM, read-out: Final Backscatter
[43] = ATCC13032, complex medium, 40 µM, read-out: Growth rate
[44] = ATCC13032, complex medium, 400 µM, read-out: Final Backscatter
[45] = ATCC13032, complex medium, 400 µM, read-out: Growth rate
[46] = ATCC13032, minimal medium, 4 µM, read-out: Final Backscatter
[47] = ATCC13032, minimal medium, 4 µM, read-out: Growth rate
[48] = ATCC13032, minimal medium, 40 µM, read-out: Final Backscatter
[49] = ATCC13032, minimal medium, 40 µM, read-out: Growth rate
[50] = ATCC13032, minimal medium, 400 µM, read-out: Final Backscatter
[51] = ATCC13032, minimal medium, 400 µM, read-out: Growth rate

O=C(/C=C/c1ccc(O)cc1)c1ccc(O)cc1O [Compound 6, 2′,4′,4-Trihydroxychalcone]
activity at 4 µM (Bacillus subtilis 168; [4]): 97.3% | activity at 4 µM (Bacillus subtilis 168; [5]): 107% | activity at 40 µM (Bacillus subtilis 168; [6]): 99.9% | activity at 40 µM (Bacillus subtilis 168; [7]): 107% | activity at 400 µM (Bacillus subtilis 168; [8]): 91.1% | activity at 400 µM (Bacillus subtilis 168; [9]): 109% | activity at 4 µM (Bacillus subtilis 168; [10]): 100% | activity at 4 µM (Bacillus subtilis 168; [11]): 103% | activity at 40 µM (Bacillus subtilis 168; [12]): 99.7% | activity at 40 µM (Bacillus subtilis 168; [13]): 99% | activity at 400 µM (Bacillus subtilis 168; [14]): 101% | activity at 400 µM (Bacillus subtilis 168; [15]): 88.2% | Lag Phase (Bacillus subtilis 168; complex medium, 4 µM): 100,0% | Lag Phase (Bacillus subtilis 168; complex medium, 40 µM): 102,6% | Lag Phase (Bacillus subtilis 168; complex medium, 400 µM): 128,1% | Lag Phase (Bacillus subtilis 168; minimal medium, 4 µM): 98,9% | Lag Phase (Bacillus subtilis 168; minimal medium, 40 µM): 102,2% | Lag Phase (Bacillus subtilis 168; minimal medium, 400 µM): 116,3% | activity at 4 µM [1, 16]: 98.8% | activity at 4 µM [1, 17]: 96% | activity at 40 µM [1, 18]: 99.5% | activity at 40 µM [1, 19]: 99.1% | activity at 400 µM [1, 20]: 95% | activity at 400 µM [1, 21]: 89.8% | activity at 4 µM [1, 22]: 100% | activity at 4 µM [1, 23]: 101% | activity at 40 µM [1, 24]: 98.8% | activity at 40 µM [1, 25]: 107% | activity at 400 µM [1, 26]: 97.7% | activity at 400 µM [1, 27]: 96.4% | Lag Phase ([1]; complex medium, 4 µM): 100,0% | Lag Phase ([1]; complex medium, 40 µM): 100,0% | Lag Phase ([1]; complex medium, 400 µM): 107,4% | Lag Phase ([1]; minimal medium, 4 µM): 101,8% | Lag Phase ([1]; minimal medium, 40 µM): 103,5% | Lag Phase ([1]; minimal medium, 400 µM): 101,8% | activity at 4 µM [2, 28]: 97.7% | activity at 4 µM [2, 29]: 104% | activity at 40 µM [2, 30]: 97.2% | activity at 40 µM [2, 31]: 106% | activity at 400 µM [2, 32]: 99.9% | activity at 400 µM [2, 33]: 100% | activity at 4 µM [2, 34]: 99% | activity at 4 µM [2, 35]: 104% | activity at 40 µM [2, 36]: 103% | activity at 40 µM [2, 37]: 106% | activity at 400 µM [2, 38]: 117% | activity at 400 µM [2, 39]: 104% | Lag Phase ([2]; complex medium, 4 µM): 99,4% | Lag Phase ([2]; complex medium, 40 µM): 101,7% | Lag Phase ([2]; complex medium, 400 µM): 107,3% | Lag Phase ([2]; minimal medium, 4 µM): 103,3% | Lag Phase ([2]; minimal medium, 40 µM): 105,6% | Lag Phase ([2]; minimal medium, 400 µM): 107,8% | activity at 4 µM [3, 40]: 99.8% | activity at 4 µM [3, 41]: 99.5% | activity at 40 µM [3, 42]: 98.2% | activity at 40 µM [3, 43]: 101% | activity at 400 µM [3, 44]: 97.7% | activity at 400 µM [3, 45]: 79.8% | activity at 4 µM [3, 46]: 100% | activity at 4 µM [3, 47]: 101% | activity at 40 µM [3, 48]: 101% | activity at 40 µM [3, 49]: 97.7% | activity at 400 µM [3, 50]: 101% | activity at 400 µM [3, 51]: 80.5% | Lag Phase ([3]; complex medium, 4 µM): 99,3% | Lag Phase ([3]; complex medium, 40 µM): 101,3% | Lag Phase ([3]; complex medium, 400 µM): 105,3% | Lag Phase ([3]; minimal medium, 4 µM): 98,5% | Lag Phase ([3]; minimal medium, 40 µM): 101,5% | Lag Phase ([3]; minimal medium, 400 µM): 127,6%

O=C(/C=C/c1ccccc1O)c1ccc(O)cc1O [Compound 7, 2′,4′,2-Trihydroxychalcone]
activity at 4 µM (Bacillus subtilis 168; [4]): 99.9% | activity at 4 µM (Bacillus subtilis 168; [5]): 95.9% | activity at 40 µM (Bacillus subtilis 168; [6]): 102% | activity at 40 µM (Bacillus subtilis 168; [7]): 104% | activity at 400 µM (Bacillus subtilis 168; [8]): 98.3% | activity at 400 µM (Bacillus subtilis 168; [9]): 92.5% | activity at 4 µM (Bacillus subtilis 168; [10]): 98.8% | activity at 4 µM (Bacillus subtilis 168; [11]): 107% | activity at 40 µM (Bacillus subtilis 168; [12]): 98.5% | activity at 40 µM (Bacillus subtilis 168; [13]): 107% | activity at 400 µM (Bacillus subtilis 168; [14]): 95.3% | activity at 400 µM (Bacillus subtilis 168; [15]): 70.4% | Lag Phase (Bacillus subtilis 168; complex medium, 4 µM): 100,0% | Lag Phase (Bacillus subtilis 168; complex medium, 40 µM): 107,1% | Lag Phase (Bacillus subtilis 168; complex medium, 400 µM): 185,2% | Lag Phase (Bacillus subtilis 168; minimal medium, 4 µM): 104,9% | Lag Phase (Bacillus subtilis 168; minimal medium, 40 µM): 106,1% | Lag Phase (Bacillus subtilis 168; minimal medium, 400 µM): 143,2% | activity at 4 µM [1, 16]: 97.2% | activity at 4 µM [1, 17]: 93.3% | activity at 40 µM [1, 18]: 97.3% | activity at 40 µM [1, 19]: 90.7% | activity at 400 µM [1, 20]: 93% | activity at 400 µM [1, 21]: 104% | activity at 4 µM [1, 22]: 98.2% | activity at 4 µM [1, 23]: 99.2% | activity at 40 µM [1, 24]: 97.2% | activity at 40 µM [1, 25]: 105% | activity at 400 µM [1, 26]: 97.4% | activity at 400 µM [1, 27]: 103% | Lag Phase ([1]; complex medium, 4 µM): 107,4% | Lag Phase ([1]; complex medium, 40 µM): 111,1% | Lag Phase ([1]; complex medium, 400 µM): 118,5% | Lag Phase ([1]; minimal medium, 4 µM): 88,9% | Lag Phase ([1]; minimal medium, 40 µM): 99,0% | Lag Phase ([1]; minimal medium, 400 µM): 99,3% | activity at 4 µM [2, 28]: 99.1% | activity at 4 µM [2, 29]: 100% | activity at 40 µM [2, 30]: 95.3% | activity at 40 µM [2, 31]: 101% | activity at 400 µM [2, 32]: 99.9% | activity at 400 µM [2, 33]: 99.6% | activity at 4 µM [2, 34]: 101% | activity at 4 µM [2, 35]: 98.3% | activity at 40 µM [2, 36]: 100% | activity at 40 µM [2, 37]: 94.3% | activity at 400 µM [2, 38]: 99.8% | activity at 400 µM [2, 39]: 106% | Lag Phase ([2]; complex medium, 4 µM): 100,0% | Lag Phase ([2]; complex medium, 40 µM): 100,0% | Lag Phase ([2]; complex medium, 400 µM): 100,0% | Lag Phase ([2]; minimal medium, 4 µM): 111,6% | Lag Phase ([2]; minimal medium, 40 µM): 101,6% | Lag Phase ([2]; minimal medium, 400 µM): 95,6% | activity at 4 µM [3, 40]: 100% | activity at 4 µM [3, 41]: 99.1% | activity at 40 µM [3, 42]: 98.3% | activity at 40 µM [3, 43]: 98.8% | activity at 400 µM [3, 44]: 110% | activity at 400 µM [3, 45]: 91.2% | activity at 4 µM [3, 46]: 98.1% | activity at 4 µM [3, 47]: 102% | activity at 40 µM [3, 48]: 101% | activity at 40 µM [3, 49]: 98.7% | activity at 400 µM [3, 50]: 94.3% | activity at 400 µM [3, 51]: 52.9% | Lag Phase ([3]; complex medium, 4 µM): 101,6% | Lag Phase ([3]; complex medium, 40 µM): 106,3% | Lag Phase ([3]; complex medium, 400 µM): 141,2% | Lag Phase ([3]; minimal medium, 4 µM): 100,0% | Lag Phase ([3]; minimal medium, 40 µM): 103,0% | Lag Phase ([3]; minimal medium, 400 µM): 181,9%
